Experiment [1] is described as follows: A Cell Based Secondary Assay To Explore Cytotoxicity of Compounds that Sensitize Mycobacterium Tuberculosis to Beta-Lactam Antibiotics. The experiment is classed as functional.
Experiment [2] can be described thus: Luminescence Cell-Based Dose Confirmation HTS to Identify Activators of 5'UTR Stem-Loop Driven Alpha-Synuclein mRNA Translation in H4 Neuroglioblastoma Cells. [Related pubchem assays: 1829 (Project Summary), 1814 (Primary HTS)]. The experiment is classed as functional.
The nature of experiment [3]: THP-1 cell cytotoxicity, dose response, cytotoxicity control for non-replicating M. tuberculosis project (AID 489025). The experiment is classed as functional.
Another experiment concerns H4. As to the kind of experiment: Luminescence Cell-Based Dose Response HTS to Identify Activators of 5'UTR Stem-Loop Driven Prion Protein mRNA Translation in H4 Neuroglioblastoma Cells. [Related pubchem assays: 1829 (Project Summary), 1814 (Primary HTS)]. It is filed as functional. Particulars: Homo sapiens.
Experiment [4] in a line: cells. It is filed as functional.
Experiment [5] in a line: Luminescence Cell-Based Dose Response HTS to Identify Activators of Luciferase Translation or Activity in H4 […] Cells. [Related pubchem assays: 1829 (Project Summary), 1814 (Primary HTS)]. The experiment is classed as functional.
Experiment [6] can be described thus: cells. It is filed as functional, cell-based.
A short description of experiment [7]: cells. It is filed as functional, cell-based. This is another data set of the same source.
Another experiment deals with INS1. Briefly: INS-1E survival protection against cytokine death – cell-based, luminescence, retest, dose response (AID 449756).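 Also: cell death triggered by IL-1 beta plus TNF-alpha plus IFN-gamma mixture; protective hits raise ATP signal compared with cytokine alone wells.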 It is filed as functional. Particulars: Rattus norvegicus, INS1.
Experiment [8] can be described thus: NIH3T3 cell viability loss – ATP luminescence, mouse fibroblasts, counter-screen, dose response (AID 2010).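 Also: cells exposed to compound for about 90 hours before reading.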 The experiment is classed as functional, cell-based.
The target of experiment [9] is T1, Microphthalmia-associated transcription factor (Homo sapiens, UniProt O75030).
T1 sequence (O75030 whole entry): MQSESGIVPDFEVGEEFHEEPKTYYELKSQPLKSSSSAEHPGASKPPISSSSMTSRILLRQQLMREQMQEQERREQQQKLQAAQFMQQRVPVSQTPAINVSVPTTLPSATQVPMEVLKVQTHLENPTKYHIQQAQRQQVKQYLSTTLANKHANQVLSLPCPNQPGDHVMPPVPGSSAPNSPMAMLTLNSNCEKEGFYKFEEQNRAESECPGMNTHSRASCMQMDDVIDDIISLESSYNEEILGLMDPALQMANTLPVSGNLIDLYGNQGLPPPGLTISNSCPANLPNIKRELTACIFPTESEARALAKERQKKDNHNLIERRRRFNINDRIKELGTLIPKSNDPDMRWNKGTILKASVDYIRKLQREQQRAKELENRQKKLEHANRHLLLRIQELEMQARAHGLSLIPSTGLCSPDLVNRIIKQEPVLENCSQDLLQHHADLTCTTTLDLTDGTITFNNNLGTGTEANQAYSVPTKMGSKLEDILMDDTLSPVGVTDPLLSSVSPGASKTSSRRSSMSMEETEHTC
Briefly: reducers of TRPM1 reporter luminescence, concentration series – cell-based, SK-MEL-5, cherry-picked, set 3, MITF inhibitor project, dose response (AID 493073).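 Also: SK-MEL-5 melanoma cells with luciferase driven by the MITF target TRPM1 promoter.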 It is filed as functional.

Experiment [10] can be described thus: Trypanosoma cruzi growth suppression in host cells – NIH3T3 host cells, beta-gal luminescence, confirmation (AID 2044).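 Also: intracellular parasites grown in NIH/3T3 mouse fibroblasts as host cells; luminescent beta-galactosidase reporter signal from transgenic T. cruzi replicating inside host cells; inhibitors lower the luminescence signal.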 The experiment is classed as functional, cell-based.
Experiment [11] in a line: Luminescence-based counterscreen assay for KLF5 inhibitors: dose response cell-based high throughput screening assay to identify cytotoxic compounds using the IEC-6 intestinal epithelial cell line. [Related pubchem assays: 1700 (Primary screen.), 1834 (Confirmation screen.), 1858 (Summary AID.), 1905 (Counterscreen.)]. The experiment is classed as functional.
The next experiment has as its target T2, Streptokinase A (Streptococcus pyogenes serotype M1, UniProt P10520).
T2 sequence (P10520 whole entry): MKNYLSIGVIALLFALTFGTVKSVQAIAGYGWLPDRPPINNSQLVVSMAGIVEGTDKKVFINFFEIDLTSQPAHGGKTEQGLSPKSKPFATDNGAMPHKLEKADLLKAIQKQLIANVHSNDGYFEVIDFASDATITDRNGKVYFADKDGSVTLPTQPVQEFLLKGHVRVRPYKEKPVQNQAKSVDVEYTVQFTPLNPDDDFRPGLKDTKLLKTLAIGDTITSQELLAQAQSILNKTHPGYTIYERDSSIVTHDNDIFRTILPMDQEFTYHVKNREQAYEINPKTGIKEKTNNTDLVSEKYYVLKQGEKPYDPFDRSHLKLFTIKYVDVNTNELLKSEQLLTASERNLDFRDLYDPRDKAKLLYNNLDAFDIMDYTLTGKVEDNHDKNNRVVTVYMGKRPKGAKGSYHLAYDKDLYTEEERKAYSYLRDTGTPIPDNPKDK
As to the kind of experiment: viability-normalized secreted streptokinase activity reduction – plasminogen activation absorbance, OD405, dose response (AID 1914).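 Also: secreted streptokinase activity via plasminogen activation per viability signal from cell pellet.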 It is filed as functional, Streptococcus pyogenes M1 GAS.

Experiment [12] is described as follows: microbe, parasite or virus in culture. It is filed as functional. The following applies: Mycobacterium tuberculosis.
The test system of experiment [13] is Streptococcus sp. 'group A'. As to the kind of experiment: Streptococcus pyogenes SK(-)GAS viability under kanamycin – luminescence, BacTiterGlo, confirmation, counter-screen for streptokinase expression inhibitor project, dose response (AID 1900). It is filed as functional, organism-based. (In general: The purpose of a counterscreen is to sort out artefacts and off-target activity.)

For a further experiment, the system named is Streptococcus. Briefly: GAS UMAA2166 growth inhibition – luminescence, BacTiterGlo, counter-screen for streptokinase expression inhibitor project, dose response (AID 1915).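 Also: potency for reduction of bacterial viability or growth.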 The experiment is classed as functional, organism-based.

Consider 8 molecules from ChEMBL document CHEMBL1201862, “PubChem BioAssay data set” (2004).

Calls of active or inactive are those of the source.

With `CCO[C@H]1OC(C(=O)NCc2nc3ccccc3[nH]2)=C[C@@H](c2ccc(C(F)(F)F)cc2)[C@@H]1CCCO`, the CC50 in experiment [1] was > 40 µM (active).

The term EC50 denotes the midpoint of the concentration-response curve. The IC50 is the midpoint of a concentration-inhibition curve. For `CCc1ccc(N2NC(=O)/C(=C/C=C/c3ccco3)C2=O)cc1`, the EC50 is 14.8 µM (active) in experiment [2], 14.3 µM (active) in the experiment on H4 and 48 µM (active) in experiment [5]. Moreover, the CC50 in experiment [3] is > 40 µM (active). The IC50 in “cells [4]” was 12.1 µM (active).

As for `CCOC(=O)c1sc2ccccc2c1NC(=O)c1coc2ccccc2c1=O`, the results for the EC50 (in experiment [2]; with H4; in experiment [5]) were > 120 µM (not active), > 120 µM (not active) and 16.9 µM (active), respectively. The CC50 in experiment [1] is > 40 µM (active).

What is called AC50 is the midpoint of the concentration-response curve, whichever way the signal moves. Turning to `COc1cccc(CN2CCC(N(CCc3ccccc3)Cc3ccccc3)CC2)c1OC`, the EC50 in “cells [6]” and in the experiment “cells [7]” was > 350 µM (not active) in each case. Further, in experiment [3], the CC50 was > 40 µM (active). The IC50 in “cells [4]” was 25.2 µM (active). The AC50 with INS1 is 11.4 µM (active).

For the molecule `O=C(NCc1cccs1)c1cc(-c2ccccc2)nc2ccccc12`, the CC50 in [1] was > 40 µM (active).

As to `COc1ccc(NC(C)C(=O)N/N=C/c2ccc([N+](=O)[O-])s2)cc1` (stereo not given), the 50% effective concentration (EC50) in experiment [8] was > 60 µM (inconclusive); in experiment [10], 0.414 µM (active). For the same molecule, the CC50 in experiment [1] is 21.8 µM (active). Further, in experiment [9], the AC50 is 15.8 µM (active).

With `Cn1cccc1-c1cc(C(=O)N/N=C/c2cc(Br)ccc2O)[nH]n1`, the 50% effective concentration (EC50) in “cells [6]” was > 350 µM (not active); in “cells [7]” it was 8.69 µM (active). Also, the AC50 in [9] was 5.25 µM (active). The IC50 in experiment [11] was 13.4 µM (not active).

As to `Cc1cc(N2CCC(C)CC2)nc(-n2nc(C)cc2C)n1`, the CC50 in experiment [3] and in experiment [12] was > 40 µM (active) throughout. Besides, in “cells [4]”, the IC50 is 0.15 µM (active). The EC50 on Streptokinase A is > 150 µM (not active); in experiment [13] it was 7.26 µM (active); in the experiment on Streptococcus it was > 150 µM (not active).
